This is an account of results in article PMC5568477 (Bioorganic & medicinal chemistry letters, 2017).

As a reminder, the Kd is the equilibrium constant for the complex coming apart. As usually defined, the Tm is the temperature at which the thermal transition is half complete.

The first experiment concerns the target T1, olfactomedin domain of human myocilin (myoc-OLF) (Homo sapiens, UniProt Q99972).
T1 sequence (Q99972 244-503 limits assumed): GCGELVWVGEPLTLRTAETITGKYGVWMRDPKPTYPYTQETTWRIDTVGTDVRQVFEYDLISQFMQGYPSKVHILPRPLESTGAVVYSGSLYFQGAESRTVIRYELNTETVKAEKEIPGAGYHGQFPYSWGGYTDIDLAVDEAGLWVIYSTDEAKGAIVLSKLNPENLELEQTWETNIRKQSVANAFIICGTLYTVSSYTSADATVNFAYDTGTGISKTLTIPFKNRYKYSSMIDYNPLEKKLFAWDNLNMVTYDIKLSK
As to the kind of experiment: Thermal shift assay by differential scanning fluorimetry.
Details: not given
It is filed as binding.
Take `Cc1cc(N(CCCl)CCCl)ccc1/C=N/NC(=O)Cc1cc(=O)oc2cc(O)ccc12` [NSC79688]: the Kd is 2000 nM.

The same experiment, now with this note: initial round of screening; DSF, 5 μM protein; protein alone Tm 49.83.
For `O=C(/C=C/c1ccc(O)c(O)c1)c1ccccc1O` [NSC37433], the Tm turned out to be 66.27 °C. The same measure, in the same setting: with `COc1cc(C(=O)C(=O)c2ccc(O)c(OC)c2)ccc1O` [NSC16722] the figure was 50.74 °C; with `Nc1nc(N)c(/N=N/c2ccc(C(=O)O)cc2)c(N)n1` [NSC408734], 51.61 °C; with `O=C1c2ccccc2C(=O)C1C(c1ccc([N+](=O)[O-])cc1)C1C(=O)c2ccccc2C1=O` [NSC643148], 51.85 °C.

For `O=C(Cn1ccc(=O)[nH]c1=O)Nc1ccc(C(=O)O)c(O)c1` [NSC93033], the Tm came to 51.49 °C. For the molecule `CN(C)c1ccc(/C=C/C(=O)c2cc(Cl)ccc2O)cc1` [NSC11437], the midpoint of thermal melting (Tm) was determined as 51.33 °C. Same read-out and setting: with `Cc1cc(N(CCCl)CCCl)ccc1/C=N/NC(=O)Cc1cc(=O)oc2cc(O)ccc12` [NSC79688] the figure was 51.43 °C.

Still in this experiment, the particulars now being: second round best hit vs NSC37433.
Consider `COc1cccc(NC(S)=Nc2ccc(O)cc2)c1` [NSC201634], for which the “increase in the affinity compared to the best hit from the initial round (NSC37433)” value is recorded as ~ 10,000 fold.

Staying with this experiment, now noted: second round of screening, seeded with NSC37433.
`O=C(Nc1ccc(Oc2ccc(NC(=O)Nc3ccc([N+](=O)[O-])cc3)cc2)cc1)Nc1ccc([N+](=O)[O-])cc1` [NSC80735]: the Tm was determined as 62.86 °C. For `COc1cccc(NC(S)=Nc2ccc(O)cc2)c1` [NSC201634], the Tm was 83.79 °C.

Consider `Cc1ccc(C(C)C)cc1NC(=O)Nc1ccc([N+](=O)[O-])cc1` [NSC46492], for which the Tm is 57.96 °C.
